# Source: PubChem BioAssay (NCI)
#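 Following 48 hours of exposure in 96-well plates, responses at five concentrations were used to interpolate endpoints linearly. TGI: total growth inhibition.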
# How the values were obtained:
# Test in all cases: DTP human tumour cell line panel, 48 h
# 786-0 renal = tested on: 786-0 renal
# A498 renal = tested on: A498 renal
# A549 NSCLC = tested on: A549 NSCLC
# ACHN renal = tested on: ACHN renal
# BT-549 breast = tested on: BT-549 breast
# CAKI-1 renal = tested on: CAKI-1 renal
# CCRF-CEM leukemia = tested on: CCRF-CEM leukemia
# COLO 205 colon = tested on: COLO 205 colon
# DU-145 prostate = tested on: DU-145 prostate
# EKVX NSCLC = tested on: EKVX NSCLC
# HCC-2998 colon = tested on: HCC-2998 colon
# HCT-116 colon = tested on: HCT-116 colon
# HCT-15 colon = tested on: HCT-15 colon
# HL-60(TB) leukemia = tested on: HL-60(TB) leukemia
# HOP-62 NSCLC = tested on: HOP-62 NSCLC
# HOP-92 NSCLC = tested on: HOP-92 NSCLC
# HS 578T breast = tested on: HS 578T breast
# HT29 colon = tested on: HT29 colon
# IGROV1 ovarian = tested on: IGROV1 ovarian
# K-562 leukemia = tested on: K-562 leukemia
# KM12 colon = tested on: KM12 colon
# LOX IMVI melanoma = tested on: LOX IMVI melanoma
# M14 melanoma = tested on: M14 melanoma
# MCF7 breast = tested on: MCF7 breast
# MDA-MB-435 = tested on: MDA-MB-435
# MDA-N = tested on: MDA-N
# MOLT-4 leukemia = tested on: MOLT-4 leukemia
# NCI-H226 lung = tested on: NCI-H226 lung
# NCI-H23 lung = tested on: NCI-H23 lung
# NCI-H460 lung = tested on: NCI-H460 lung
# NCI/ADR-RES ovarian = tested on: NCI/ADR-RES ovarian
# OVCAR-3 ovarian = tested on: OVCAR-3 ovarian
# OVCAR-4 ovarian = tested on: OVCAR-4 ovarian
# OVCAR-5 ovarian = tested on: OVCAR-5 ovarian
# PC-3 prostate = tested on: PC-3 prostate
# RPMI-8226 leukemia = tested on: RPMI-8226 leukemia
# RXF 393 renal = tested on: RXF 393 renal
# SF-268 CNS = tested on: SF-268 CNS
# SF-295 CNS = tested on: SF-295 CNS
# SK-MEL-28 melanoma = tested on: SK-MEL-28 melanoma
# SK-MEL-5 melanoma = tested on: SK-MEL-5 melanoma
# SN12C renal = tested on: SN12C renal
# SNB-19 CNS = tested on: SNB-19 CNS
# SR leukemia = tested on: SR leukemia
# SW-620 colon = tested on: SW-620 colon
# U251 CNS = tested on: U251 CNS
# UACC-257 melanoma = tested on: UACC-257 melanoma
# UACC-62 melanoma = tested on: UACC-62 melanoma
# UO-31 renal = tested on: UO-31 renal
structure (smiles),measurement,setting,value
O=c1[nH]c(=O)n(COCc2ccccc2)cc1Nc1ccc(Br)cc1,TGI,786-0 renal,> 100 µM
same,TGI,A498 renal,> 100 µM
same,TGI,A549 NSCLC,> 100 µM
same,TGI,ACHN renal,> 100 µM
same,TGI,BT-549 breast,> 100 µM
same,TGI,CAKI-1 renal,> 100 µM
same,TGI,CCRF-CEM leukemia,> 100 µM
same,TGI,COLO 205 colon,> 100 µM
same,TGI,DU-145 prostate,> 100 µM
same,TGI,EKVX NSCLC,> 100 µM
same,TGI,HCC-2998 colon,> 100 µM
same,TGI,HCT-116 colon,> 100 µM
same,TGI,HCT-15 colon,> 100 µM
same,TGI,HL-60(TB) leukemia,> 100 µM
same,TGI,HOP-62 NSCLC,88.7 µM
same,TGI,HOP-92 NSCLC,> 100 µM
same,TGI,HS 578T breast,> 100 µM
same,TGI,HT29 colon,> 100 µM
same,TGI,IGROV1 ovarian,> 100 µM
same,TGI,K-562 leukemia,> 100 µM
same,TGI,KM12 colon,> 100 µM
same,TGI,LOX IMVI melanoma,> 100 µM
same,TGI,M14 melanoma,> 100 µM
same,TGI,MCF7 breast,> 100 µM
same,TGI,MDA-MB-435,> 100 µM
same,TGI,MDA-N,> 100 µM
same,TGI,MOLT-4 leukemia,> 100 µM
same,TGI,NCI-H226 lung,> 100 µM
same,TGI,NCI-H23 lung,> 100 µM
same,TGI,NCI-H460 lung,> 100 µM
same,TGI,NCI/ADR-RES ovarian,> 100 µM
same,TGI,OVCAR-3 ovarian,> 100 µM
same,TGI,OVCAR-4 ovarian,> 100 µM
same,TGI,OVCAR-5 ovarian,> 100 µM
same,TGI,PC-3 prostate,> 100 µM
same,TGI,RPMI-8226 leukemia,> 100 µM
same,TGI,RXF 393 renal,> 100 µM
same,TGI,SF-268 CNS,> 100 µM
same,TGI,SF-295 CNS,> 100 µM
same,TGI,SK-MEL-28 melanoma,> 100 µM
same,TGI,SK-MEL-5 melanoma,> 100 µM
same,TGI,SN12C renal,> 100 µM
same,TGI,SNB-19 CNS,> 100 µM
same,TGI,SR leukemia,> 100 µM
same,TGI,SW-620 colon,> 100 µM
same,TGI,U251 CNS,> 100 µM
same,TGI,UACC-257 melanoma,> 100 µM
same,TGI,UACC-62 melanoma,> 100 µM
same,TGI,UO-31 renal,> 100 µM
